Consider 1 molecule from PMC9551036, “A selective and orally bioavailable VHL-recruiting PROTAC achieves SMARCA2 degradation in vivo” (Nature Communications, 2022).

A short description of data set [1]: Microsomal stability. Type of data set: in vitro ADME. How it is done: […] Reactions were terminated by addition of acetonitrile and precipitates separated by centrifugation. Compound concentrations in supernatants were measured by HPLC-MS/MS and clearance was calculated from compound half-lives using the well-stirred liver model.
Data set [2] is described as follows: Plasma protein binding. The class given is in vitro ADME.
Data set [3] in a line: Bidirectional permeability measurement in Caco-2 cells. The class given is in vitro ADME. As to conditions: human. A digest of the protocol:
(§1)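 Compound quantified by LC-MS/MS in samples taken over up to 2 h across 14–21-day Caco-2 monolayers, after 24 h preincubation with 1 µM compound. Runs done without and with 5 µM zosuquidar to probe P-gp. Efflux ratio is the quotient of duplicate-mean Papp,BA over Papp,AB.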
On the technique in general: Passage across Caco-2 layers is used to estimate intestinal permeability.

The test system of data set [4] is P-gp. The description is as above. Particulars: human, Caco-2, pH 7.4, with zosuquidar 5 µM, Modified Caco-2, b to a, + PGPi (Zosuquidar); read-out: Modified Caco-2 Pba + PGPi (Zosuquidar). Type of data set: in vitro ADME. In short, it runs like this:
as §1

The target of data set [5] is SMARCA2 (Homo sapiens, UniProt P51531). As to the kind of experiment: SMARCA2 capillary electrophoresis protein assay in other cell lines (A549, NCI-H1568, HCT116, LU99, HCC-364, HCT-15, HCC4006, SK-N-AS). The class given is cell-based. Also on record: endogenous in cells; host or cells: RKO, NCI-H1568, A549, HCT116, LU99, HCC-364, HCT-15, HCC4006, SK-N-AS. A digest of the protocol:
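Protein was read by capillary electrophoresis immunodetection on lysates, normalised to GAPDH, with 4-parametric logistic curves where applicable. Degradation exposures ran 4 or 18 h. Turnover used cycloheximide 50 µg/ml for 1–24 h. Recovery used 100 nM compound 6 for 4 h as baseline, followed by a 25 or 50 µM VHL binder for 3 or 24 h.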

Each structure is given as a SMILES string. Values joined by “and” are separate entries in the source; they are usually repeats but may differ in a detail not shown here. Equal values may be shown once. Read-outs that look alike come from different tables or passages of the source.

SMARCA2, sequence (P51531 whole entry): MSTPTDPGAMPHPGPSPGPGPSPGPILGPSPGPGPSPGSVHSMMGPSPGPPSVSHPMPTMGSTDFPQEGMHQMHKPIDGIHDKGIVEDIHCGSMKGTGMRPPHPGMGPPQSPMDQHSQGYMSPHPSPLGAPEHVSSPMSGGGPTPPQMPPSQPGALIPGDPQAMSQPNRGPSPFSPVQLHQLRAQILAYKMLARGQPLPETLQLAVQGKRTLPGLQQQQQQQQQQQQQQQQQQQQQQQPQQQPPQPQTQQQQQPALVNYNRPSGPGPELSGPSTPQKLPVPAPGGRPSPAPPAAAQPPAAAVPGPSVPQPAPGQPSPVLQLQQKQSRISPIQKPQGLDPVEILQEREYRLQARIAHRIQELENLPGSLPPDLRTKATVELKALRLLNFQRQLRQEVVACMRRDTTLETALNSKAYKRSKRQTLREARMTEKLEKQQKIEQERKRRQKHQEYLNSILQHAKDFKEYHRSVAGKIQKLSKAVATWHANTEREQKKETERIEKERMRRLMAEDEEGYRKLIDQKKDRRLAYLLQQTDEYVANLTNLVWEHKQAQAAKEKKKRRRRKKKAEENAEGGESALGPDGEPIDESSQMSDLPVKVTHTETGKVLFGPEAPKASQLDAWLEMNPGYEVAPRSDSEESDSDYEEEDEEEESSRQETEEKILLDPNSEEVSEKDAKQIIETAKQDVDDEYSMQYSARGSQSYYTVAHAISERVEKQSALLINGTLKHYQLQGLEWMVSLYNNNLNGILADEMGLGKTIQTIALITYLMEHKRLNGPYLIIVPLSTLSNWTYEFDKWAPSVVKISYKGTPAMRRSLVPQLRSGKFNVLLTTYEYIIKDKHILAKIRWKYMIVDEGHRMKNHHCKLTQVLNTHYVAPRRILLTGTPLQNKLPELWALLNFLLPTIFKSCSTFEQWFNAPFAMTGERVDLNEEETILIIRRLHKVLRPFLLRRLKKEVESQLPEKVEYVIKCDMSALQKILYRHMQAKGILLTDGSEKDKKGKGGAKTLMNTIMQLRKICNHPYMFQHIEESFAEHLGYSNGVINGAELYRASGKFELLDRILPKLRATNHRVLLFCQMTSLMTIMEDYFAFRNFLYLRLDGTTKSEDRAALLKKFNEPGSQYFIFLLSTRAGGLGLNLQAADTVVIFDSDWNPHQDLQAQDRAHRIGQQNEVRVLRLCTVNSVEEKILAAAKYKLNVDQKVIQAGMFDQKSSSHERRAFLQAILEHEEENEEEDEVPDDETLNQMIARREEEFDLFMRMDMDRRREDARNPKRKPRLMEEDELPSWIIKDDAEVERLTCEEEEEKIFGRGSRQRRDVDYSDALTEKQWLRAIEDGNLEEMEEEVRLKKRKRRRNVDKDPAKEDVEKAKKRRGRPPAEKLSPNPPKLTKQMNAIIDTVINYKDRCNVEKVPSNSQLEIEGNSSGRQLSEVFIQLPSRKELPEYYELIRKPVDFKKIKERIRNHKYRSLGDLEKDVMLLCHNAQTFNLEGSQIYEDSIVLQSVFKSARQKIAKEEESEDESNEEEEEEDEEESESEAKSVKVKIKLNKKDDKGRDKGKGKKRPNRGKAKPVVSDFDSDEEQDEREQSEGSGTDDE

As to `Cc1ncsc1-c1ccc([C@H](CCCCCN2CCC(c3ccc4c(c3)n(C3CCCC3)c3nc(=O)c5c(Br)cccc5n43)CC2)NC(=O)[C@@H]2C[C@@H](O)CN2C(=O)[C@@H](NC(=O)C2(F)CC2)C(C)(C)C)cc1` [compound 11], the “microsomal stability” value in data set [1] is on record as “good microsomal stability”. The “Mic. Stab. Human” value in data set [1] (human liver microsomes) is on record as below 24 % QH. The “Mic. Stab. Human QH” value in data set [1] (human liver microsomes) is listed as <24.400 <24.400 <24.400 <24.400%. Also, the “Mic. Stab. Mouse” value in data set [1] (mouse liver microsomes) is listed as below 24 % QH. For the same molecule, the “Mic. Stab. Mouse QH” value in data set [1] (mouse liver microsomes) is given as <24.200 <24.200 <24.200 <24.200 <24.200 <24.200 <24.200 <24.200%. For the same molecule, the “Mic. Stab. Rat” value in data set [1] (rat liver microsomes) is below 23 % QH. The “Mic. Stab. Rat QH” value in data set [1] (rat liver microsomes) was <23.100 <23.100 <23.100 <23.100 <23.100 <23.100 <23.100 <23.100%. In addition, the “PPB fu 10% Calf” value in data set [2] (10% calf) came to 0.136%. Besides, the “PPB fu 10% Human” value in data set [2] (10% human) was < 0.043% and < 0.038%. In data set [2] (10% mouse), the “PPB fu 10% Mouse” value is < 0.038% and < 0.228% and 1.281%. The “PPB fu 10% Rat” value in data set [2] (10% rat) was < 0.044% and < 0.048%. In addition, the fraction unbound at 5 h, 3 µmol/L in data set [2] (bovine, 10% calf plasma dilution in PBS, 10% calf, fraction unbound, read-out: PPB fu 10% Calf) was 0.0014; in data set [2] (bovine, 10% plasma (plasma dilution in PBS), 10% calf, read-out: PPB fu 10% Calf), below 0.00092; in data set [2] (human, 10% plasma (plasma dilution in PBS), 10% human, read-out: PPB fu 10% Human), below 0.00049; in data set [2] (human, plasma, human, fraction unbound, read-out: PPB fu Human) it was below 0.0004; in data set [2] (mouse, plasma, mouse, fraction unbound, read-out: PPB fu Mouse), below 0.0004; in data set [2] (rat, 10% plasma (plasma dilution in PBS), 10% rat, read-out: PPB fu 10% Rat), below 0.00047. Moreover, the fraction unbound at 5 h, 3 µmol/L in data set [2] (rat, plasma, rat, fraction unbound, read-out: PPB fu Rat) is below 0.0004. The Papp A→B at 1 µM in data set [3] (Caco-2, pH 7.4, Caco-2, read-out: Caco-2 Pab) worked out at 1.4 ± 0.5 ×10⁻⁶ cm/s; in data set [3] (Caco-2, pH 7.4, Modified Caco-2, read-out: Modified Caco-2 Pab), 6 ± 3 ×10⁻⁶ cm/s. Further, the Papp B→A at 2 h, 1 µM in data set [4] came to 24 ×10⁻⁶ cm/s. In data set [5] (NCI-H1568 (4 h), mean ± SD), this molecule showed a Dmax of 90 ± 0.3%. Further, the DC50 was 8 ± 4 nM in data set [5] (NCI-H1568 (4 h), mean ± SD, read-out: SMARCA2 DC50); 5.2 nM and 13 nM and 6.7 nM in data set [5] (NCI-H1568, 4h, individual replicates, read-out: NCI-H1568 (4h) SMARCA2 DC50).
